# Test results: paper PMC8294059, “Identification and Immune Assessment of T Cell Epitopes in Five Plasmodium falciparum Blood Stage Antigens to Facilitate Vaccine Candidate Selection and Optimization” (Frontiers in Immunology, 2021)
# Where two headings read alike, the source gives them in different places. Where a SMILES comes first, the peptide text is derived from it.
# Experiments:
# Assay in all cases: biochemical
# Format in all cases: binding
# HLA-DRB1*1301 = HLA-DRB1*1301 (Homo sapiens, UniProt P01903+P01911, A100E/A169T/K41T/L162R/M171V/P40S/Q125H/Q178H/Q39Y/Q99D/R42S/S66N/T262R/W38E/Y61H); details: binding inhibition assay; NB = non-binder (no dose-dependent inhibition); read-out: DRB1*1301 IC50
# Protocol: (§1) The binding assay conducted by EpiVax yields an indirect measure of peptide-MHC affinity as it utilizes a competition assay format per the methodology described in Steere et al. ([35]). […] Post incubation, the mixtures are moved to a 96-well plate coated with anti-HLA-DR antibody to capture HLA-peptide complexes. Time-resolved fluorescence measurement of the bound labeled reference peptide complex present in each mixture is detected with a europium-linked probe via fluorescent spectrophotometry using a SpectraMax M5 system. HLA binding affinity of each test peptide is expressed as the percent inhibition of reference peptide binding. Percent inhibition values (across the test peptide titration range) are used to calculate the half maximal inhibitory concentration (IC50) of each test peptide. For these studies, test peptides were assessed using a range of final concentrations from 100,000 nM to 100 nM. The panel of commercially-available HLA-DRB1 allele monomers used includes: *0101, *0301, *0401, *0701, *0801, *1101, *1301 and *1501. EpiVax established HLA-DRB1 binding affinity cutoffs were used to rank the IC50 values.
# (§2) In vitro HLA binding assays (step 2 of workflow shown in Figure 1 ) were carried out with the synthesized peptides to verify the EpiMatrix outputs and provide a measure of accuracy for comparing in silico-predicted HLA-DRB1 allele binding to laboratory assessments of HLA-DRB1 allele binding. These assessments were conducted using a competition assay format whereby IC50 values were calculated based on the ability of the test peptide to compete with a labeled, high binding affinity reference peptide for HLA-DRB1 molecule binding. Sequences for the high affinity reference peptides and the negative control peptide, known not to bind any of the HLA-DRB1 molecules, are provided in Table S18 .
# HLA-DRB1*0101 = molecular target: T1, HLA-DRB1*0101 (Homo sapiens, UniProt P01903+P01911, A100R/D57E/F55L/F60I/F76Y/I96L/L162R/M171V/P40L/Q125E/R42F/V115G/Y59C); details: binding inhibition assay; NB = non-binder (no dose-dependent inhibition); read-out: DRB1*0101 IC50
# T1 construct: purchased
# Protocol: as §1, §2
# HLA-DRB1*1501 = molecular target: T2, HLA-DRB1*1501 (Homo sapiens, UniProt P01903+P01911); details: binding inhibition assay; NB = non-binder (no dose-dependent inhibition); read-out: DRB1*1501 IC50
# T2 construct: purchased
# Protocol: as §1, §2
# HLA-DRB1*0401 = molecular target: T3, HLA-DRB1*0401 (Homo sapiens, UniProt P01903+P01911, A100K/A169T/F76Y/I96L/K127E/L162R/M171V/N62H/P40V/Q125Y/R42H/S133A/S149N/S66Y/V115G/V209L/W38E); details: binding inhibition assay; NB = non-binder (no dose-dependent inhibition); read-out: DRB1*0401 IC50
# T3 construct: purchased
# Protocol: as §1, §2
# HLA-DRB1*0801 = HLA-DRB1*0801 (Homo sapiens, UniProt P01903+P01911, A100R/A103L/A169T/D86S/F76Y/H45Y/I96F/K41T/L162R/M171V/P40S/Q125H/Q178H/Q39Y/Q99D/R218S/R42G/S66Y/V115G/W38E); details: binding inhibition assay; NB = non-binder (no dose-dependent inhibition); read-out: DRB1*0801 IC50
# Protocol: as §1, §2
# HLA-DRB1*1101 = HLA-DRB1*1101 (Homo sapiens, UniProt P01903+P01911, A100R/A169T/A87E/I96F/K41T/L162R/M171V/P40S/Q125H/Q178H/Q39Y/Q99D/R42S/S66Y/T262R/V115G/W38E); details: binding inhibition assay; NB = non-binder (no dose-dependent inhibition); read-out: DRB1*1101 IC50
# Protocol: as §1, §2
# HLA-DRB1*0701 = HLA-DRB1*0701 (Homo sapiens, UniProt P01903+P01911, A100R/A102G/A103Q/D57E/D86V/E43K/F76Y/K127E/L162R/M171V/P40G/Q125H/Q99D/R33Q/R42Y/R54Q/S133A/S66F/T210M/V115G/Y107V/Y59L/Y89S); details: binding inhibition assay; NB = non-binder (no dose-dependent inhibition); read-out: DRB1*0701 IC50
# Protocol: as §1, §2
# HLA-A*0101 = HLA-A*0101 (Homo sapiens, UniProt P04439, A114D/A174V/A182V/D101N/D185E/E176A/E190D/L180R/Q94H/R68K/S129P/T187R/V100A/V91M/W191G)
# Protocol: A cell-free class I HLA binding assay that allows for in vitro quantification of peptide-HLA binding affinity in a competition format was used. In this assay, a fluorescently labeled, high binding, control peptide is loaded onto 384-well ½-area plates along with unlabeled experimental peptides. To remove endogenous peptides and render the HLA A and B molecules receptive to binding, HLA is heated at 53°C for 15 minutes and immediately added to the assay. The mixture is then allowed to stand for three days. Once the mixture has reached steady equilibrium (at 72 hours), displacement of the high binding control peptide is measured through fluorescence polarization. Binding of experimental peptides is expressed as the percent inhibition of the labeled control peptide (experimental fluorescence / control fluorescence, multiplied by 100). The percent inhibition values for each experimental peptide (across a range of molar concentrations) are used to calculate the concentration which inhibits 50% of the labeled control peptide’s specific binding. This value is referred to as the peptide’s IC50.
# [1] = allele A*0101, fluorescence polarization competition, read-out: IC50 (nM), in vitro HLA binding affinity
# [2] = allele A*0101, fluorescence polarization competition
# HLA-DRB1*1101, sequence (P01903 26-254 limits assumed, other chains not shown): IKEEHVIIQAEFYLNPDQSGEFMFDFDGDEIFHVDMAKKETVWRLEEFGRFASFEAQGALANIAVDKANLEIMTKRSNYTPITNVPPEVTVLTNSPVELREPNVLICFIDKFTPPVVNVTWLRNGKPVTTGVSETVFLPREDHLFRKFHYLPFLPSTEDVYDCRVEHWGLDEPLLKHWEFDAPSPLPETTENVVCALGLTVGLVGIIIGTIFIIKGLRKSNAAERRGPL
compound,measurement,setting,value
CC[C@H](C)[C@H](NC(=O)[C@H](CC(=O)O)NC(=O)[C@H](CC(C)C)NC(=O)[C@H](CCCCN)NC(=O)[C@H](CC(N)=O)NC(=O)[C@H](CCC(=O)O)NC(C)=O)C(=O)N[C@@H](CC(C)C)C(=O)N[C@@H](CC(N)=O)C(=O)N[C@@H](CC(N)=O)C(=O)N[C@@H](CO)C(=O)N[C@@H](CCCCN)C(=O)N[C@@H](Cc1ccccc1)C(=O)N[C@@H](CC(N)=O)C(=O)N[C@@H](CCCCN)C(=O)N[C@@H](CCCNC(=N)N)C(=O)N[C@@H](Cc1c[nH]c2ccccc12)C(=O)N[C@@H](CCCCN)C(N)=O [EBA175_002] (Ac-ENKLDILNNSKFNKRWK-NH2),IC50,HLA-DRB1*1301,14.2 µM
same,IC50,HLA-DRB1*0101,11.9 µM
same,IC50,HLA-DRB1*1501,13.9 µM
same,IC50,HLA-DRB1*0401,> 100 µM
CC[C@H](C)[C@H](NC(=O)[C@H](Cc1ccccc1)NC(=O)[C@H](Cc1c[nH]cn1)NC(=O)[C@H](CC(=O)O)NC(C)=O)C(=O)N[C@@H](CCC(=O)O)C(=O)N[C@@H](C)C(=O)N[C@@H](CO)C(=O)N[C@@H](CCCCN)C(=O)N[C@@H](CCCCN)C(=O)N[C@@H](CCC(=O)O)C(=O)N[C@@H](CO)C(=O)N[C@@H](CCC(N)=O)C(=O)N[C@@H](CC(C)C)C(=O)N[C@@H](CC(C)C)C(N)=O [EBA175_006] (Ac-DHFIEASKKESQLL-NH2),IC50,HLA-DRB1*0801,1.76 µM
same,IC50,HLA-DRB1*1301,74.6 µM
same,IC50,HLA-DRB1*0101,6.63 µM
same,IC50,HLA-DRB1*1101,2.87 µM
same,IC50,HLA-DRB1*0401,> 100 µM
CSCC[C@H](NC(=O)[C@@H](NC(=O)[C@H](Cc1c[nH]cn1)NC(=O)[C@H](Cc1ccccc1)NC(=O)CNC(=O)[C@H](Cc1c[nH]cn1)NC(=O)[C@H](CCCCN)NC(C)=O)[C@@H](C)O)C(=O)N[C@@H](CC(N)=O)C(=O)N[C@@H](CC(N)=O)C(=O)N[C@@H](CC(C)C)C(=O)N[C@@H](Cc1c[nH]cn1)C(=O)NCC(=O)N[C@@H](CC(=O)O)C(=O)NCC(=O)N[C@H](C(=O)N[C@@H](CO)C(=O)N[C@@H](CCC(=O)O)C(N)=O)C(C)C [EBA175_016] (Ac-KHGFHTMNNLHGDGVSE-NH2),IC50,HLA-DRB1*1301,> 100 µM
same,IC50,HLA-DRB1*0101,0.16 µM
same,IC50,HLA-DRB1*1101,8.62 µM
same,IC50,HLA-DRB1*1501,79 µM
same,IC50,HLA-DRB1*0401,0.458 µM
CC[C@H](C)[C@H](NC(=O)[C@H](Cc1ccc(O)cc1)NC(=O)[C@@H](NC(=O)[C@H](CO)NC(=O)[C@H](Cc1c[nH]cn1)NC(C)=O)[C@@H](C)O)C(=O)N[C@@H](CCCCN)C(=O)N[C@@H](CO)C(=O)N[C@@H](Cc1ccc(O)cc1)C(=O)N[C@@H](CC(C)C)C(=O)N[C@@H](CC(N)=O)C(=O)N[C@H](C(=O)N[C@@H](CC(N)=O)C(=O)N[C@H](C(=O)N[C@@H](CC(N)=O)C(=O)N[C@@H](CC(=O)O)C(=O)NCC(=O)N[C@@H](CC(C)C)C(=O)N[C@@H](CCCCN)C(=O)N[C@@H](Cc1ccc(O)cc1)C(N)=O)C(C)C)[C@@H](C)O [RH5_003] (Ac-HSTYIKSYLNTNVNDGLKY-NH2),IC50,HLA-DRB1*0701,58.5 µM
same,IC50,HLA-DRB1*1301,20.1 µM
same,IC50,HLA-DRB1*0101,0.282 µM
same,IC50,HLA-DRB1*1101,96.5 µM
same,IC50,HLA-DRB1*1501,0.004 µM
same,IC50,HLA-DRB1*0401,7.45 µM
N=C(N)NCCC[C@H](NC(=O)[C@H](Cc1ccc(O)cc1)NC(=O)[C@H](CO)NC(=O)[C@H](CC(=O)O)NC(=O)[C@H](CC(=O)O)NC(=O)[C@H](CC(N)=O)NC(=O)[C@H](CCCCN)NC(=O)[C@@H](N)CC(N)=O)C(=O)N[C@@H](Cc1ccc(O)cc1)C(=O)O [RH5_246] (H-NKNDDSYRY-OH),IC50,HLA-A*0101; [1],6680 nM
C[C@@H](O)[C@H](NC(=O)[C@@H](N)CC(=O)O)C(=O)N[C@@H](CC(=O)O)C(=O)N[C@@H](CO)C(=O)N[C@@H](CC(N)=O)C(=O)N[C@@H](Cc1c[nH]cn1)C(=O)N[C@H](C(=O)N1CCC[C@H]1C(=O)N[C@@H](CO)C(=O)N[C@@H](CC(N)=O)C(=O)O)[C@@H](C)O [RH5_280] (H-DTDSNHTPSN-OH),IC50,HLA-A*0101,5880 nM
CC[C@H](C)[C@H](NC(=O)CNC(=O)[C@H](CC(N)=O)NC(=O)[C@@H](NC(=O)[C@@H](N)CC(N)=O)[C@@H](C)O)C(=O)N[C@@H](CCCNC(=N)N)C(=O)N[C@@H](Cc1ccc(O)cc1)C(=O)N[C@@H](Cc1c[nH]cn1)C(=O)N[C@@H](Cc1ccc(O)cc1)C(=O)O [RH5_352] (H-NTNGIRYHY-OH),IC50,HLA-A*0101; [1],4380 nM
CC[C@H](C)[C@H](NC(=O)[C@H](Cc1ccccc1)NC(=O)[C@H](CCCCN)NC(=O)[C@@H](NC(=O)[C@@H](NC(=O)[C@H](CC(=O)O)NC(=O)[C@@H](NC(=O)[C@@H](N)Cc1ccc(O)cc1)[C@@H](C)CC)[C@@H](C)O)[C@@H](C)CC)C(=O)N[C@@H](Cc1c[nH]cn1)C(=O)N[C@@H](CCCCN)C(=O)O [RH5_406] (H-YIDTIKFIHK-OH),IC50,HLA-A*0101; [1],1510 nM
CC[C@H](C)[C@H](NC(=O)[C@@H]1CCCN1C(=O)[C@@H](NC(=O)[C@H](CC(=O)O)NC(=O)[C@H](CC(N)=O)NC(=O)[C@@H](N)Cc1ccccc1)C(C)C)C(=O)N[C@@H](CCCCN)C(=O)N[C@@H](CCSC)C(=O)N[C@@H](CCC(=O)O)C(=O)N[C@@H](Cc1ccc(O)cc1)C(=O)O [RH5_505] (H-FNDVPIKMEY-OH),IC50,HLA-A*0101; [1],498 nM
CC(=O)N[C@@H](CCC(=O)O)C(=O)N[C@@H](CCC(=O)O)C(=O)NCC(=O)N[C@@H](Cc1ccc(O)cc1)C(=O)N[C@@H](CCCCN)C(=O)N[C@@H](CC(N)=O)C(=O)N[C@H](C(=O)N[C@@H](CCCCN)C(=O)NCC(=O)N[C@@H](CCCCN)C(=O)N[C@@H](CS)C(=O)N[C@H](C(=O)N1CCC[C@H]1C(=O)N[C@@H](CC(=O)O)C(=O)N[C@@H](CC(N)=O)C(=O)N[C@@H](CCCCN)C(N)=O)C(C)C)C(C)C [RIPR_015] (Ac-EEGYKNVKGKCVPDNK-NH2),IC50,HLA-DRB1*0701,9.28 µM
same,IC50,HLA-DRB1*1301,> 100 µM
same,IC50,HLA-DRB1*0101,1.81 µM
same,IC50,HLA-DRB1*1101,32 µM
same,IC50,HLA-DRB1*1501,> 100 µM
same,IC50,HLA-DRB1*0401,> 100 µM
CC(C)C[C@H](NC(=O)[C@H](Cc1ccc(O)cc1)NC(=O)[C@H](C)NC(=O)[C@H](Cc1ccc(O)cc1)NC(=O)[C@H](CC(=O)O)NC(=O)[C@H](CC(N)=O)NC(=O)[C@@H](N)CCC(=O)O)C(=O)N[C@@H](CC(N)=O)C(=O)N[C@@H](CCCCN)C(=O)N[C@@H](Cc1ccc(O)cc1)C(=O)O [RIPR_0059] (H-ENDYAYLNKY-OH),IC50,HLA-A*0101; [1],42200 nM
DSCVPNTNEY [RIPR_0976],"IC50 (nM), in vitro HLA binding affinity",HLA-A*0101; [2],Non-binder
LSDTLQLHED [EBA175_0881],IC50 (nM),"HLA-A*0101; allele A*0101, cell-free competition, fluorescence polarization at 72 hours, Non-binder = no dose-dependent inhibition",Non-binder
NLFEQLSCY [RH5_338],"IC50 (nM), in vitro HLA binding affinity",HLA-A*0101; [2],Non-Binder
STDPHTNSNN [RIPR_0545],"IC50 (nM), in vitro HLA binding affinity",HLA-A*0101; [2],Non-binder
